Tests used:
Assay type in all cases: physicochemical
[1] = production of NO and N2O by amidine/nitric oxide adducts, headspace chemiluminescence (NO) and gas chromatography (N2O); conditions: for Yield NO / Yield N2O: headspace; for Yield NO: chemiluminescence; for Yield N2O: gas chromatography
Source text: (§1) Nitrous oxide (N2O), being the end product of HNO dimerization and dehydration, provided a measure of HNO production via the equation (Nagasawa et al., J. Med. Chem. 33: 3122-3124 (1990)): [drawing 12]
This example describes the measurement of the production of NO and N2O by amidine/nitric oxide adducts.

[2] = gas evolution on dissolving in water and acidifying; conditions: dissolved in water and acidified
Source text: as §1

[3] = time course of NO production in phosphate buffer pH 7.4 at 37° C., chemiluminescence detector; conditions: phosphate buffer pH 7.4, 37° C.; for initial NO release rate: start of experiment
Experimental: This example describes the measurement of the time course of NO production by amidine and enamine nitric oxide adducts.
The NO release rate was measured periodically by flushing the solution with inert N2 gas and then sweeping newly generated NO into a chemiluminescence detector and integrating the signal produced over the next 4-7 mins. NO release was measured over a period of two weeks.
None of these compounds released nitric oxide via a single pathway which produced a release profile consistent with first order kinetics. Accordingly, the results of each test are summarized here by giving the initial NO release rate, the rate at one intermediate timepoint and the total time of observed NO release for representative examples.

For “2-iminopiperidine bis(nitric oxide)adduct [Example 4]”, which “Yield NO” value ([1]; pH 7.4 buffer) is on record?
The value was −0.08 moles per mole cmpd.

What about the “Yield N2O” value ([1]; pH 7.4 buffer) of the same molecule?
Its value is 0.45 moles per mole cmpd.

What does the source list for “2-methyl-2-imidazoline tetrakis(nitric oxide)adduct [Example 2]”?
gas evolution [2]: voluminous gas evolution; Yield NO ([1]; 0.1 N HCl): 0.45 moles per mole cmpd; Yield N2O ([1]; 0.1 N HCl): 0.9 moles per mole cmpd; composition of evolving gas (NO and N2O) ([1]; pH 7.4, NO by chemiluminescence, N2O by gas chromatography): 2 parts NO (determined by chemiluminescence) and 1 part N2O

With `O=NN(O)C1(C2=NCCN2)CCCCC1` [Example 5, 2-cyclohexyl-2-imidazoline bis(nitric oxide)adduct] as the molecule, how does the “Yield N2O” value ([1]; 0.1 N HCl) read?
Its value is 0.2 moles per mole cmpd.

Which “Yield NO” value ([1]; pH 7.4 buffer) does the source give for “acetamidine tetrakis (nitric oxide) adduct [Example 3]” here?
The value was 0.05 moles per mole cmpd.

And the “Yield N2O” value ([1]; pH 7.4 buffer)?
Its value is 0.64 moles per mole cmpd.

With “cyclohexanone morpholine enamine bis(nitric oxide) adduct [Example 9]” as the molecule, how does the “NO release profile, kinetic order” value [3] read?
The value was “nearly first order kinetics”.

What about the “time at which NO release reached zero” value [3] of the same molecule?
The value was ≤ 7 days.

What about the “NO release rate after 3 days” value ([3]; after 3 days) of the same molecule?
The value was 1.8×10^−11 mole NO/min./mg.

What about the “initial NO release rate” value [3] of the same molecule?
The value was 4.2×10^−11 moles NO/min./mg.

For “idazoxan-bis(nitric oxide) adduct [Example 7]”, which “time at which NO release reached zero” value [3] is on record?
Its value is ≤ 16 days.

And the “NO release rate after 4 days” value ([3]; after 4 days (gradually increased))?
The value was 1.41×10^−10 moles NO/min./mg.

What about the “initial NO release rate” value [3] of the same molecule?
The value was 5.25×10^−11 moles NO/min./mg.

Which results are given for “isobutyraldehyde morpholine enamine bis (nitric oxide) adduct [Example 10]”?
time at which NO release reached zero [3]: 7 days; initial NO release rate [3]: 3.7×10^−11 moles NO/min./mg.; NO release rate after rapid decrease ([3]; remained at about this level for 4 days): 7.0×10^−12 mole NO/min./mg.

With “tetrahydrozoline bis(nitric oxide)adduct [Example 6]” as the molecule, how does the “total time of observed NO release (in words)” value [3] read?
The value was “continued for several weeks”.

What about the “NO release rate, last quantitative measurement” value ([3]; 15 days after the beginning) of the same molecule?
The value was 9.00×10^−12 moles NO per min. per mg.

And the “NO release rate after 7 days” value ([3]; after 7 days)?
The value was 2.06×10^−11 moles NO per min. per mg.

And the “initial NO release rate” value [3]?
The value was 3.64×10^−11 moles NO/min./mg.

Source: patent US6911478B2, “Nitric oxide-releasing amidine- and enamine-derived diazeniumdiolates, compositions and uses thereof and method of making same” (The United States of America as represented by the …, priority 1997, dated 2005)
